Source: patent EP0437336B1, “Biophosphoryl hydrazines and their use as pesticides” (priority 1990, dated 1991)
In brackets after ≈: the same amount, converted by molar mass. Like-named read-outs stand apart in the source and are kept apart here.

Columns and labels:
Two-Spotted Spider Mite = assay: Biological Method D: Foliar Insecticidal Activity Test, mite test; format: in vivo, Tetranychus urticae; set-up: key to LC50 TSM: I = inactive at concentration listed; details: for LC50: Tetranychus urticae
Description: (§1) Biological Method D: Foliar Insecticidal Activity Test
(§2) In evaluating the foliar insecticidal activity of the compounds of this invention against insects and mites, the following test procedures were employed.
(§3) Not all compounds were tested at each of the several concentrations stated above. Test concentrations of a compound were selected as those most likely to differentiate dose response of a particular compound toward a particular test insect.
(§4) Initial evaluations were made on one or more of the following pests:
For the mite test, infested bean (Phaseolus limensis var. Woods Prolific) leaf discs [3.18 cm (1.25") in diameter] containing about 50 mites were placed in a Petri dish lid on a moistened piece of cotton. The leaves were then sprayed to thorough wetness with the test solution using a rotating turntable, held for twenty-four hours and then the percentage killed was determined.
(§5) The mortalities obtained in this manner were plotted on logarithmic probability paper.
(§6) The rotating turntable consists of a fixed, continuously operating spray nozzle under which targets are rotated at a fixed speed and distance. If the target is a Petri dish (such as for the bean beetle, armyworm, mite, or aphid tests), the distance from the nozzle is 38.1 cm (15 inches). If the target is a Mason jar (such as for the boll weevil test), the distance from the nozzle is 17.8 cm (7 inches). The nozzle is located 8 inches from the rotating shaft. The targets on individual platforms revolve around the shaft at 1 revolution per 20 seconds but only a brief portion of this time occurs in the spray path. Targets pass only once under the nozzle and then are removed to drying hoods.
(§7) The nozzle used is a 1/4 JCO Spraying Systems (Wheaton, Illinois) air atomizing nozzle equipped with a No. 2850 fluid cap and a No. 70 air cap. At the 68.95 x 10³ Pa gauge (10 psig) air pressure used and with liquid siphon feed, 1.89 ℓ/hr [0.5 GPH (gallons per hour)] are delivered in a round spray pattern with a 21 degree spray angle. Targets are misted with spray droplets to the point that the droplets coalesce to form a uniform thin film insufficient to drown test organisms.

Green Peach Aphid [1] = assay: Biological Method D: Foliar Insecticidal Activity Test, aphid test; format: in vivo, Myzus persicae; details: foliar spray; kill after twenty-four hours
Description: as §1, §2, §3, §4
(§8) For the aphid test, infested broccoli (Brassica oleracea italica var. DiCicco) leaves containing about 50 aphids were placed in a Petri dish lid on a moistened piece of cotton. The leaves were then sprayed to thorough wetness with the test solution using a rotating turntable, held for twenty-four hours and then the percentage killed was determined.
as §5, §6, §7

Mexican Bean Beetle = assay: Biological Method D: Foliar Insecticidal Activity Test, Mexican Bean Beetle test; format: in vivo, Epilachna varivestis; details: Epilachna varivestis
Description: as §1, §2, §3, §4
(§9) For the Mexican Bean Beetle and Southern armyworm tests, individual lima bean (Phaseolus limeniss var. Woods' Prolific) leaves were placed on moistened pieces of filter paper in Petri dishes. The leaves were then sprayed with the test solution using a rotating turntable and allowed to dry. The dishes were then infested with 10 third instar larvae of either the Mexican Been Beetle or the Southern Armyworm. The dishes were then covered. Percent mortality was determined for each species and spray concentration at 48 and 96 hours after treatment.
as §5, §6, §7

Southern Armyworm [2] = assay: Biological Method D: Foliar Insecticidal Activity Test, Southern Armyworm test; format: in vivo, Spodoptera eridania; details: foliar spray; for AW 48 hrs LC50: 48 hours after treatment; for AW 96 hrs LC50: 96 hours after treatment
Description: as §1, §2, §3, §4, §9, §5, §6, §7

Boll Weevil [3] = assay: Biological Method D: Foliar Insecticidal Activity Test, boll weevil test; format: in vivo, Anthonomous grandis; details: spray into jar
Description: as §1, §2, §3, §4
(§10) For the boll weevil test, 10 adult weevils were placed in a 0.24 ℓ (0.5 pint) glass Mason jar containing a small cube of apple. The weevils were confined to the jar by fiberglass screen mesh secured by a screw-type rim cap. The jars were then sprayed with the test solution using a rotating turntable; directing the spray through the mesh into the jar. The percentage killed was determined after forty-eight and ninety six hours.
as §5, §6, §7

[4] = system: southern corn rootworm, Diabrotica undecimpunctata howardi; assay: Biological Method A: Corn Rootworm Screening Test (treated non-aggressive soil); details: soil concentration giving 90% mortality, 10 days at 27°C
Green Peach Aphid [5] = assay: Biological Method D: Foliar Insecticidal Activity Test, aphid test; format: in vivo, Myzus persicae; set-up: key: I = inactive at concentration listed
Description: as §1, §2, §3, §4, §8, §5, §6, §7

Southern Armyworm [6] = assay: Biological Method D: Foliar Insecticidal Activity Test, Southern Armyworm test; format: in vivo, Spodoptera eridania; set-up: key: I = inactive at concentration listed
Description: as §1, §2, §3, §4, §9, §5, §6, §7

Boll Weevil [7] = assay: Biological Method D: Foliar Insecticidal Activity Test, boll weevil test; format: in vivo, Anthonomous grandis; set-up: key: I = inactive at concentration listed
Description: as §1, §2, §3, §4, §10, §5, §6, §7

[8] = system: southern corn rootworm, Diabrotica undecimpunctata howardi; details: percent control relative to infested check, from root damage ratings; 14 days post-spraying
[9] = foliar spray, kill after twenty-four hours
[10] = foliar spray, 48 hours after treatment, read-out: BB 48 hrs. LC50
[11] = foliar spray, 96 hours after treatment, read-out: BB 96 hrs LC50
[12] = 24 h, foliar spray, kill after twenty-four hours, read-out: TSM LC50
[13] = Method D foliar test, Mexican Bean Beetle, 48 hrs, read-out: LC50 BB 48 hrs.
[14] = Method D foliar test, Mexican Bean Beetle, 96 hrs, read-out: LC50 BB 96 hrs
[15] = Method D foliar test, Two-Spotted Spider Mite, read-out: LC50 TSM

Row | Compound | TSM LC50 (Two-Spotted Spider Mite; [9]) | GPA LC50 (Green Peach Aphid [1]) | LC50 (Mexican Bean Beetle; [10]) [µg/mL] | LC50 (Mexican Bean Beetle; [11]) [µg/mL] | AW 48 hrs LC50 (Southern Armyworm [2]) | AW 96 hrs LC50 (Southern Armyworm [2]) | BW 48 hrs LC50 (Boll Weevil [3]) | BW 96 hrs LC50 (Boll Weevil [3]) | primary nonagressive Method A crw LC90 [4] [ppm] | LC50 (Two-Spotted Spider Mite; [12]) [µg/mL] | LC50 TSM (Two-Spotted Spider Mite; Method D foliar test, Two-Spotted Spider Mite) | LC50 (Mexican Bean Beetle; [13]) [µg/mL] | LC50 (Mexican Bean Beetle; [14]) [µg/mL] | LC50 GPA (Green Peach Aphid [5]) | LC50 AW 48 hrs (Southern Armyworm [6]) | LC50 AW 96 hrs (Southern Armyworm [6]) | LC50 BW 48 hrs (Boll Weevil [7]) | LC50 BW 96 hrs (Boll Weevil [7]) | foliar systemic nonagressive Method B crw % control at 0.56 kg/ha (0.5 lb/acre) [8] [%] | LC50 (Two-Spotted Spider Mite; [15]) [µg/mL]
1 | CCCOP(=S)(NNP(=S)(NCC(C)C)OCC)OCCC (stereo not drawn) [Compound 81] | I | I | 500 (≈ 1280 µM) | 740 (≈ 1890 µM) | I | I | I | I | 1.1 | – | – | – | – | – | – | – | – | – | – | –
2 | CCCOP(=S)(NNP(=S)(OCC)OC(C)(C)C(F)(F)F)OCC (stereo not drawn) [Compound 69] | – | I | 500 (≈ 1160 µM) | 62 (≈ 143 µM) | I | I | I | I | 1.1 | 360 (≈ 833 µM) | – | – | – | – | – | – | – | – | – | –
3 | CCCOP(=S)(NNP(=S)(OCC)OC(C)(C(F)(F)F)C(F)(F)F)OCC (stereo not drawn) [Compound 70] | I | I | 500 (≈ 1030 µM) | 45 (≈ 92.5 µM) | I | I | I | I | 1.1 | – | – | – | – | – | – | – | – | – | – | –
4 | CCCCCOP(=S)(NNP(=S)(OCC)OCC)OCC (stereo not drawn) [Compound 63] | I | I | – | 740 (≈ 1960 µM) | I | I | I | 740 ppm | 1.1 | – | – | – | – | – | – | – | – | – | – | –
5 | CCOP(=S)(NNP(=S)(OCC)N(C)CC)OCC (stereo not drawn) [Compound 75] | – | I | 500 (≈ 1430 µM) | 150 (≈ 429 µM) | I | I | I | I | 1.1 | 150 (≈ 429 µM) | – | – | – | – | – | – | – | – | – | –
6 | CCCOP(=S)(NNP(=S)(OCC)OCC)OCCC [Compound 13, reference compound] | – | – | – | – | – | – | – | – | <0.1 | – | I | 150 (≈ 412 µM) | 52 (≈ 143 µM) | I | I | I | I | I | 46 | –
7 | C=CCOP(=S)(NNP(=S)(OCC)OCC)OCC (stereo not drawn) [Compound 10] | – | – | – | – | – | – | – | – | 0.79 | – | – | – | 78 (≈ 224 µM) | I | I | I | I | I | 34 | 510 (≈ 1460 µM)
8 | CCOP(=S)(NNP(=S)(OCC)OC(C)C)OCC (stereo not drawn) [Compound 5] | – | – | – | – | – | – | – | – | <0.1 | – | – | 740 (≈ 2110 µM) | – | I | I | I | I | I | 69 | 150 (≈ 428 µM)
9 | CCCN(C)P(=S)(NNP(=S)(OCC)OCC)OCC (stereo not drawn) [Compound 76] | – | I | 150 (≈ 413 µM) | 62 (≈ 171 µM) | I | I | I | I | 1.1 | 150 (≈ 413 µM) | – | – | – | – | – | – | – | – | – | –
